Columns and labels:
[1] = tested on: Plasmodium falciparum; experiment: Antiprotozoal activity against erythrocytic form of chloroquine/pyrimethamine-resistant Plasmodium falciparum K1 after 48 hrs by [3H]-hypoxanthine incorporation assay; type: functional, organism-based
[2] = tested on: L6; experiment: Cytotoxicity against rat L6 cells after 72 hrs by alamar blue assay; type: cell-based; details: L6, 72 h
[3] = tested on: Leishmania donovani; experiment: Antiprotozoal activity against amastigote form of Leishmania donovani MHOM/ET/67/L82 after 72 hrs by alamar blue assay; type: functional, organism-based; details: MHOM/ET/67/L82, 72 h
[4] = tested on: Trypanosoma cruzi; experiment: Antiprotozoal activity against trypomastigote form of Trypanosoma cruzi Tulahuen C2C4 infected in rat L6 cells after 96 hrs by CPRG/Nonidet-based […]; type: functional, organism-based; details: Tulahuen C2C4, L6, 96 h
[5] = tested on: Trypanosoma brucei rhodesiense; experiment: Antiprotozoal activity against blood stream form of Trypanosoma brucei rhodesiense STIB900 after 72 hrs by alamar blue assay; type: functional, organism-based; details: STIB900, 72 h

SMILES	IC50 [1] [µM]	IC50 [2] [µM]	IC50 [3] [µM]	IC50 [4] [µM]	IC50 [5] [µM]
CC1=C(O)/C(=C/[C@H](C)CCC/C(C)=C/CCc2coc(Cc3ccoc3)c2)OC1=O [IRCININ 1]	58	150	31	120	97
COc1cc([C@@H]2c3cc4c(cc3[C@H](O)[C@H]3COC(=O)[C@H]23)OCO4)cc(OC)c1OC [PODOFILOX]		0.01			
CC1=C(O)/C(=C/[C@H](C)CCC/C(C)=C/CCC2=CC(Cc3ccoc3)N(CC(=O)O)C2=O)OC1=O (stereo partly specified)	> 100	> 200	95		130
CC1=C(O)/C(=C/[C@H](C)CC/C=C(/C)CCCc2coc(Cc3ccoc3)c2)OC1=O [IRCININ 2]	56	140	28	110	65
Nc1nc(N)nc(Nc2ccc([As]3SCC(CO)S3)cc2)n1 (stereo unspecified) [MELARSOPROL]					0.015
O=C(Cn1ccnc1[N+](=O)[O-])NCc1ccccc1 [BENZNIDAZOLE]				3.07	
CC1=C(O)/C(=C/[C@H](C)CCC/C(C)=C/CCc2coc(CC3=CCN(CC(=O)O)C3=O)c2)OC1=O	95	> 200	120		130

Reference: ChEMBL document CHEMBL4130402, “Antiprotozoal Linear Furanosesterterpenoids from the Marine Sponge Ircinia oros” (J Nat Prod, 2017)
